Experimental data from patent US9062074B2, “(9E)-15-(2-pyrrolidin-1-yl-ethoxy)-7,12,25-trioxa-19,21,24-triaza-tetracyclo[18.3.1.1(2.5).1(14,18)]hexacosa-1(24),2,4,9,14,16,18(26),20,22-nonaene citrate salt” (CTI BioPharma Corp., priority 2009, dated 2015).
Read-outs that look alike come from different tables or passages of the source.

Assays:
Format in all cases: physicochemical
[1] = Phase stability by XRPD after storage at 40° C. and 75% relative humidity for one week; details: solid form by low resolution XRPD after one week
Experimental: Condition 2 (Low Resolution)
X-Ray Powder Diffraction patterns were also collected on a Bruker D8 diffractometer using Cu K[…] radiation (40 kV, 40 mA), θ-2θ goniometer, and divergence of V4 and receiving slits, a Ge monochromator and a Lynxeye detector. The instrument is performance checked using a certified Corundum standard (NIST 1976). The software used for data collection was Diffrac Plus XRD Commander v2.5.0 and the data were analysed and presented using Diffrac Plus EVA v 11.0.0.2 or v 13.0.0.2. Samples were run under ambient conditions as flat plate specimens using powder as received. Approximately 15 mg of the sample was gently packed into a cavity cut into polished, zerobackground (510) silicon wafer. The sample was rotated in its own plane during analysis. The details of the data collection are:
The samples which had been prepared for the collection of low resolution XRPD traces were placed in a chamber maintained at 40° C. and 75% relative humidity. After one week the samples were reanalysed by low resolution XRPD (Condition 2), to check for phase changes. It can be seen that no phase change has occurred, and that citrate salts of the invention are stable for at least one week under these conditions.

[2] = Thermogravimetric Analysis (TGA)
Experimental: Thermogravimetric Analysis (TGA) data were collected on a Mettler TGA/SDTA 851e equipped with a 34 position autosampler. The instrument was temperature calibrated using certified indium. Typically 5-30 mg of each sample was loaded onto a pre-weighed aluminium crucible and was heated at 10° C.min^−1 from ambient temperature to 350° C. A nitrogen purge at 50 ml.min^−1 was maintained over the sample. The instrument control and data analysis software was STARe v9.10.

[3] = Differential Scanning Calorimetry (DSC); details: heated at 10° C.min^−1
Experimental: Differential Scanning Calorimetry (DSC) data were collected on a Mettler DSC 823e equipped with a 34 position auto-sampler. The instrument was calibrated for energy and temperature using certified indium. Typically 0.5-3 mg of each sample, in a pin-holed aluminium pan, was heated at 10° C.min^−1 from 25° C. to 350° C. A nitrogen purge at 50 ml.min^−1 was maintained over the sample. The instrument control and data analysis software was STARe v9.10.

[4] = Solubility assessment (solvent added in 10 volume aliquots); details: thermodynamic from solid, read-out: Solubility assessment observation
Experimental: For each solvent investigated, approximately 8 mg of compound 1 was weighed into an 8 ml screw top glass vial. The solvent was added in 10 volume aliquots and the mixture sonicated and warmed (with a hot-air gun) to encourage dissolution. If dissolution was not achieved after the addition of 100 volumes of solvent, a further 100 volumes was added.

C1=C2COC/C=C/COCc3cc(ccc3OCCN3CCCC3)Nc3nccc(n3)C(=C1)O2 [Batch 5]
< 50 mg/mL: solubility ([4]; IPA, organic solvent or mixture, IPA, 20 vols) | solubility ([4]; MEK, organic solvent or mixture, MEK, 20 vols) | solubility ([4]; THF, organic solvent or mixture, THF, 20 vols) | solubility ([4]; acetone, organic solvent or mixture, Acetone, 20 vols) | solubility ([4]; acetonitrile, organic solvent or mixture, Acetonitrile, 20 vols) | solubility ([4]; ethanol, organic solvent or mixture, Ethanol, 20 vols)
< 20 mg/mL: solubility ([4]; MEK, organic solvent or mixture, MEK, 50 vols)
< 100 mg/mL: solubility ([4]; IPA, organic solvent or mixture, IPA, 10 vols) | solubility ([4]; MEK, organic solvent or mixture, MEK, 10 vols) | solubility ([4]; THF, organic solvent or mixture, THF, 10 vols) | solubility ([4]; acetone, organic solvent or mixture, Acetone, 10 vols) | solubility ([4]; acetonitrile, organic solvent or mixture, Acetonitrile, 10 vols) | solubility ([4]; ethanol, organic solvent or mixture, Ethanol, 10 vols)
< 10 mg/mL: solubility ([4]; IPA, organic solvent or mixture, IPA, 100 vols) | solubility ([4]; MEK, organic solvent or mixture, MEK, 100 vols) | solubility ([4]; THF, organic solvent or mixture, THF, 100 vols) | solubility ([4]; acetone, organic solvent or mixture, Acetone, 100 vols) | solubility ([4]; acetonitrile, organic solvent or mixture, Acetonitrile, 100 vols) | solubility ([4]; ethanol, organic solvent or mixture, Ethanol, 100 vols)
< 16.7 mg/mL: solubility ([4]; IPA, organic solvent or mixture, IPA, 60 vols) | solubility ([4]; MEK, organic solvent or mixture, MEK, 60 vols) | solubility ([4]; THF, organic solvent or mixture, THF, 60 vols) | solubility ([4]; acetone, organic solvent or mixture, Acetone, 60 vols) | solubility ([4]; acetonitrile, organic solvent or mixture, Acetonitrile, 60 vols) | solubility ([4]; ethanol, organic solvent or mixture, Ethanol, 60 vols)
> 100 mg/mL: solubility ([4]; water, Water, 10 vols)
onset 178 °C: Differential Scanning Calorimetry complex endotherm onset (significant thermal event) [3]
< 33.3 mg/mL: solubility ([4]; IPA, organic solvent or mixture, IPA, 30 vols) | solubility ([4]; MEK, organic solvent or mixture, MEK, 30 vols) | solubility ([4]; THF, organic solvent or mixture, THF, 30 vols) | solubility ([4]; acetonitrile, organic solvent or mixture, Acetonitrile, 30 vols) | solubility ([4]; ethanol, organic solvent or mixture, Ethanol, 30 vols)
< 12.5 mg/mL: solubility ([4]; IPA, organic solvent or mixture, IPA, 80 vols) | solubility ([4]; MEK, organic solvent or mixture, MEK, 80 vols) | solubility ([4]; THF, organic solvent or mixture, THF, 80 vols) | solubility ([4]; acetone, organic solvent or mixture, Acetone, 80 vols) | solubility ([4]; acetonitrile, organic solvent or mixture, Acetonitrile, 80 vols) | solubility ([4]; ethanol, organic solvent or mixture, Ethanol, 80 vols)
−0.4% w/w ambient to: Thermogravimetric Analysis weight change ([2]; ambient to 160° C.)
< 5 mg/mL: solubility ([4]; IPA, organic solvent or mixture, IPA, 200 vols) | solubility ([4]; MEK, organic solvent or mixture, MEK, 200 vols) | solubility ([4]; THF, organic solvent or mixture, THF, 200 vols) | solubility ([4]; acetone, organic solvent or mixture, Acetone, 200 vols) | solubility ([4]; acetonitrile, organic solvent or mixture, Acetonitrile, 200 vols) | solubility ([4]; ethanol, organic solvent or mixture, Ethanol, 200 vols)
−21% w/w 160 to 250 °C: Thermogravimetric Analysis weight change ([2]; 160 to 250° C.)
< 25 mg/mL: solubility ([4]; IPA, organic solvent or mixture, IPA, 40 vols) | solubility ([4]; MEK, organic solvent or mixture, MEK, 40 vols) | solubility ([4]; THF, organic solvent or mixture, THF, 40 vols) | solubility ([4]; acetone, organic solvent or mixture, Acetone, 40 vols) | solubility ([4]; acetonitrile, organic solvent or mixture, Acetonitrile, 40 vols) | solubility ([4]; ethanol, organic solvent or mixture, Ethanol, 40 vols)
Crystalline Form 1: Phase Stability 1 wk @ 40° C./75% RH [1]
